Measurements reported in PubChem BioAssay (NCI).
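Tested at 5 concentrations; 48 h exposure; 96-well plates; endpoints linearly interpolated, else capped at highest concentration. GI50 = concentration required for 50% inhibition of growth. At the TGI there is no net growth.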

Assays:
Assay in all cases: NCI anticancer screen, dose series, 48 h
[1] = test system: SNB-19 CNS
[2] = test system: SN12C renal
[3] = test system: MALME-3M melanoma
[4] = test system: CCRF-CEM leukemia
[5] = test system: HOP-92 NSCLC
[6] = test system: HCT-15 colon
[7] = test system: OVCAR-5 ovarian
[8] = test system: SW-620 colon
[9] = test system: UACC-62 melanoma
[10] = test system: PC-3 prostate
[11] = test system: SK-OV-3 ovarian
[12] = test system: MCF7 breast
[13] = test system: OVCAR-3 ovarian
[14] = test system: 786-0 renal
[15] = test system: A498 renal
[16] = test system: SF-268 CNS
[17] = test system: NCI/ADR-RES ovarian
[18] = test system: HL-60(TB) leukemia
[19] = test system: EKVX NSCLC
[20] = test system: SNB-75 CNS
[21] = test system: ACHN renal
[22] = test system: SK-MEL-2 melanoma
[23] = test system: IGROV1 ovarian
[24] = test system: A549 NSCLC
[25] = test system: MDA-MB-435
[26] = test system: HCC-2998 colon
[27] = test system: CAKI-1 renal
[28] = test system: BT-549 breast

Oc1cc(Cl)ccc1Oc1ccc(Cl)cc1Cl gave a GI50 [1] of 3.66 µM, a TGI [1] of 13.7 µM and a GI50 [2] of 3.12 µM. The TGI [2] was 11.4 µM, the GI50 [3] was 2.37 µM and the TGI [3] was 6.83 µM. For the same compound, the GI50 [4] was 3.36 µM, the TGI [4] was 10.6 µM and the GI50 [5] was 2.11 µM. For the same compound, the TGI [5] was 5.69 µM, the GI50 [6] was 3.31 µM and the TGI [6] was 10.9 µM. For the same compound, the GI50 [7] was 3.37 µM, the TGI [7] was 12.1 µM and the GI50 [8] was 3.51 µM. It also gave a TGI [8] of 12.7 µM, a GI50 [9] of 2.16 µM and a TGI [9] of 5 µM. It also gave a GI50 [10] of 2.78 µM, a TGI [10] of 8.43 µM and a GI50 [11] of 2.97 µM. The TGI [11] was 7.86 µM, the GI50 [12] was 3.14 µM and the TGI [12] was 10.6 µM. It also gave a GI50 [13] of 5.21 µM, a TGI [13] of 17.2 µM and a GI50 [14] of 2.47 µM. It also gave a TGI [14] of 6.61 µM, a GI50 [15] of 2.8 µM and a TGI [15] of 14.1 µM. For the same compound, the GI50 [16] was 4.53 µM, the TGI [16] was 16.4 µM and the GI50 [17] was 2.81 µM. The TGI [17] was 7.93 µM, the GI50 [18] was 3.31 µM and the TGI [18] was 8.31 µM. For the same compound, the GI50 [19] was 3.04 µM, the TGI [19] was 11.9 µM and the GI50 [20] was 2.31 µM. For the same compound, the TGI [20] was 8.71 µM, the GI50 [21] was 3.47 µM and the TGI [21] was 11.3 µM. It also gave a GI50 [22] of 2.41 µM, a TGI [22] of 5.01 µM and a GI50 [23] of 4.73 µM. For the same compound, the TGI [23] was 17 µM, the GI50 [24] was 2.6 µM and the TGI [24] was 8.12 µM. The GI50 [25] was 2.86 µM, the TGI [25] was 9.24 µM and the GI50 [26] was 2.57 µM. The TGI [26] was 6.61 µM, the GI50 [27] was 4.84 µM and the TGI [27] was 17.8 µM. The GI50 [28] was 2.62 µM and the TGI [28] was 5.95 µM.
